Data published in patent US10259810B2, “N-sulfonylated pyrazolo[3,4-b]pyridin-6-carboxamides and method of use” (AbbVie S.à.r.l., priority 2015, dated 2019).

Assays:
[1] = target: T1, ΔF508-CFTR (Homo sapiens, UniProt P13569, DEL508-508); test: CFTR cell surface levels using HRP-tagged ΔF508-CFTR expressing CFBE cells, in the presence of a co-corrector; assay type: cell-based; details: HRP-tagged ΔF508-CFTR CFBE cells, in the presence of 3 μM co-corrector; for EC50: read-out: EC50
T1 construct: host or cells: CFBE41o-, doxycycline-inducible
Method in brief: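 Chemiluminescent read-out of surface HRP (15 min, dark) after PBS washes. Activity is normalized as 100×(sample−DMSO)/(3 μM co-corrector alone−DMSO).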

[2] = target: T1, ΔF508-CFTR; test: CFTR cell surface levels using HRP-tagged ΔF508-CFTR expressing CFBE cells, intrinsic corrector capacity; assay type: cell-based; set-up: % Activation: concentration or dose not given beside the values; details: HRP-tagged ΔF508-CFTR expressing CFBE41o- cells, compound alone (intrinsic corrector capacity), 20 hours at 33° C.; for EC50: read-out: EC50
Method in brief: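 Surface ΔF508-CFTR was measured as HRP chemiluminescence from an extracellular-loop-4 tag, expressed as percent activity between DMSO and a […] corrector control.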

T1 sequence (P13569 with tags, fused parts or gaps DEL508-508): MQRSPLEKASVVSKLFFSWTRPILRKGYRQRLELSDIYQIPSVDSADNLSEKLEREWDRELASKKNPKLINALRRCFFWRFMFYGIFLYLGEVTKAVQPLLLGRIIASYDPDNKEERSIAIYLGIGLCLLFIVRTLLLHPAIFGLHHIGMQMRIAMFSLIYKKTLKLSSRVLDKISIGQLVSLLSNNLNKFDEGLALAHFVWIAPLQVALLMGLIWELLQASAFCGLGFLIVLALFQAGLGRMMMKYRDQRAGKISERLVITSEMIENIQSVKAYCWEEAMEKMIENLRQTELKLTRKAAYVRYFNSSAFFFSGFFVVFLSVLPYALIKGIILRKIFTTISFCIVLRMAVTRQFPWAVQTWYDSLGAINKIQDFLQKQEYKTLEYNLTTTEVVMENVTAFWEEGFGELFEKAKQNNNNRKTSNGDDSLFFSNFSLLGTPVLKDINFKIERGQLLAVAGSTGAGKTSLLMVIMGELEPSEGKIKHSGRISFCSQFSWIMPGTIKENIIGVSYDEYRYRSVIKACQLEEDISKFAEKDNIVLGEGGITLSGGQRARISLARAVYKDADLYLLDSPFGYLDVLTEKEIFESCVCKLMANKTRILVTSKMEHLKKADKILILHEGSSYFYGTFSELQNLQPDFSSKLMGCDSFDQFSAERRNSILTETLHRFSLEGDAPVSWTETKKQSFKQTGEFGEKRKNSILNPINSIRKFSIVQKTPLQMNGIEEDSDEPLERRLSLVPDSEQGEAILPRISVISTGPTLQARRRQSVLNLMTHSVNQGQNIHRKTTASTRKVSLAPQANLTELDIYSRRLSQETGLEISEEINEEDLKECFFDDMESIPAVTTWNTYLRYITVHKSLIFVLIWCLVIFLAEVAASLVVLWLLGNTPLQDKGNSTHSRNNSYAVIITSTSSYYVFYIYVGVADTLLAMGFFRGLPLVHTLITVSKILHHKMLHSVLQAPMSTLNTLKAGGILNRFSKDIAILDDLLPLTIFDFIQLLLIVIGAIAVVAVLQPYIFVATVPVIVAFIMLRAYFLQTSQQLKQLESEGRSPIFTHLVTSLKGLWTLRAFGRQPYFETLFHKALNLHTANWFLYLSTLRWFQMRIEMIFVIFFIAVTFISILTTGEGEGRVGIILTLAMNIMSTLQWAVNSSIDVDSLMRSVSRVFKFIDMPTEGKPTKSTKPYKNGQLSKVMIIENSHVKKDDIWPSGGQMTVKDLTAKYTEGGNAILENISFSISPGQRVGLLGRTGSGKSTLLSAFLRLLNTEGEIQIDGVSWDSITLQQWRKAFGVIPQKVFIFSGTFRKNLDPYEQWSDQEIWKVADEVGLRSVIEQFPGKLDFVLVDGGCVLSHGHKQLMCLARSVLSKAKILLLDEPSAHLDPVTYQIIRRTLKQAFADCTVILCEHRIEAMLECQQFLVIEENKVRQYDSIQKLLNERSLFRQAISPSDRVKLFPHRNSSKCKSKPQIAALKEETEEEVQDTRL

## CC(C)c1nn(-c2cccc(N(C)C)c2)c2nc(C(=O)NS(C)(=O)=O)cc(-c3ccc(N4CCOCC4)nc3)c12 [Compound 53, 1-[3-(dimethylamino)phenyl]-N-(methanesulfonyl)-4-[6-(morpholin-4-yl)pyridin-3-yl]-3-(propan-2-yl)-1H-pyrazolo[3,4-b]pyridine-6-carboxamide]
[1]
  % Activation: 572.78%
  EC50: 647 nM
[2]
  % Activation: 376.8%
  EC50: 671 nM

## CCS(=O)(=O)NC(=O)c1cc(-c2ccc(N3CCOCC3)nc2)c2c(C(C)C)nn(-c3cccc(N(C)C)c3)c2n1 [Compound 54, 1-[3-(dimethylamino)phenyl]-N-(ethanesulfonyl)-4-[6-(morpholin-4-yl)pyridin-3-yl]-3-(propan-2-yl)-1H-pyrazolo[3,4-b]pyridine-6-carboxamide]
[1]
  % Activation: 593.12%
  EC50: 464 nM
[2]
  % Activation: 386.92%
  EC50: 780 nM

## CC(C)c1nn(C2CCCC2)c2nc(C(=O)NS(C)(=O)=O)cc(-c3ccc(N(C)C)nc3)c12 [Compound 55, 1-cyclopentyl-4-[6-(dimethylamino)pyridin-3-yl]-N-(methanesulfonyl)-3-(propan-2-yl)-1H-pyrazolo[3,4-b]pyridine-6-carboxamide]
[1]
  % Activation: 341.65%
  EC50: 1050 nM
[2]
  % Activation: 126.75%
  EC50: 1220 nM

## CCS(=O)(=O)NC(=O)c1cc(-c2ccc(N(C)C)nc2)c2c(C(C)C)nn(C3CCCC3)c2n1 [Compound 56, 1-cyclopentyl-4-[6-(dimethylamino)pyridin-3-yl]-N-(ethanesulfonyl)-3-(propan-2-yl)-1H-pyrazolo[3,4-b]pyridine-6-carboxamide]
[1]
  % Activation: 336.75%
  EC50: 838 nM
[2]
  % Activation: 122.1%
  EC50: 1180 nM

## Cc1nn(-c2cccc(C(F)(F)F)c2)c2nc(C(=O)NS(C)(=O)=O)cc(-c3ccc(N4CCOCC4)nc3)c12 [Compound 57, N-(methanesulfonyl)-3-methyl-4-[6-(morpholin-4-yl)pyridin-3-yl]-1-[3-(trifluoromethyl)phenyl]-1H-pyrazolo[3,4-b]pyridine-6-carboxamide]
[1]
  % Activation: 440%
  EC50: 657 nM
[2]
  % Activation: 219.65%
  EC50: 1020 nM

## CCS(=O)(=O)NC(=O)c1cc(-c2ccc(N3CCOCC3)nc2)c2c(C)nn(-c3cccc(C(F)(F)F)c3)c2n1 [Compound 58, N-(ethanesulfonyl)-3-methyl-4-[6-(morpholin-4-yl)pyridin-3-yl]-1-[3-(trifluoromethyl)phenyl]-1H-pyrazolo[3,4-b]pyridine-6-carboxamide]
[1]
  % Activation: 352.5%
  EC50: 422 nM
[2]
  % Activation: 196.2%
  EC50: 756 nM

## CC(C)c1nn(-c2cccc(N(C)C)c2)c2nc(C(=O)NS(C)(=O)=O)cc(-c3cnc(N4CCOCC4)nc3)c12 [Compound 59, 1-[3-(dimethylamino)phenyl]-N-(methanesulfonyl)-4-[2-(morpholin-4-yl)pyrimidin-5-yl]-3-(propan-2-yl)-1H-pyrazolo[3,4-b]pyridine-6-carboxamide]
[1]
  % Activation: 534.8%
  EC50: 482 nM
[2]
  % Activation: 317.3%
  EC50: 777 nM

## Cc1nn(-c2ccc(F)cc2F)c2nc(C(=O)NS(C)(=O)=O)cc(-c3ccc(N4CCOCC4)nc3)c12 [Compound 60, 1-(2,4-difluorophenyl)-N-(methanesulfonyl)-3-methyl-4-[6-(morpholin-4-yl)pyridin-3-yl]-1H-pyrazolo[3,4-b]pyridine-6-carboxamide]
[1]
  % Activation: 323.63%
  EC50: 351 nM
[2]
  % Activation: 160.43%
  EC50: 394 nM

## CCS(=O)(=O)NC(=O)c1cc(-c2ccc(N3CCOCC3)nc2)c2c(C)nn(-c3ccc(F)cc3F)c2n1 [Compound 61, 1-(2,4-difluorophenyl)-N-(ethanesulfonyl)-3-methyl-4-[6-(morpholin-4-yl)pyridin-3-yl]-1H-pyrazolo[3,4-b]pyridine-6-carboxamide]
[1]
  % Activation: 415.3%
  EC50: 506 nM
[2]
  % Activation: 184.35%
  EC50: 1000 nM

## CCS(=O)(=O)NC(=O)c1cc(-c2cnc(N3CCOCC3)nc2)c2c(C(C)C)nn(-c3cccc(N(C)C)c3)c2n1 [Compound 62, 1-[3-(dimethylamino)phenyl]-N-(ethanesulfonyl)-4-[2-(morpholin-4-yl)pyrimidin-5-yl]-3-(propan-2-yl)-1H-pyrazolo[3,4-b]pyridine-6-carboxamide]
[1]
  % Activation: 631.2%
  EC50: 532 nM
[2]
  % Activation: 350.85%
  EC50: 596 nM

## CC(C)c1nn(C2CCCCC2)c2nc(C(=O)NS(C)(=O)=O)cc(-c3ccc(N4CCC(F)(F)C4)nc3)c12 [Compound 64, 1-cyclohexyl-4-[6-(3,3-difluoropyrrolidin-1-yl)pyridin-3-yl]-N-(methanesulfonyl)-3-(propan-2-yl)-1H-pyrazolo[3,4-b]pyridine-6-carboxamide]
[1]
  % Activation: 362.45%
  EC50: 444 nM
[2]
  % Activation: 152.75%
  EC50: 935 nM

## Cc1nn(-c2cccc(Cl)c2)c2nc(C(=O)NS(C)(=O)=O)cc(-c3ccc(N4CCOCC4)cc3)c12 [Compound 65, 1-(3-chlorophenyl)-N-(methanesulfonyl)-3-methyl-4-[4-(morpholin-4-yl)phenyl]-1H-pyrazolo[3,4-b]pyridine-6-carboxamide]
[1]
  % Activation: 332.05%
  EC50: 464 nM
[2]
  % Activation: 162.33%
  EC50: 1530 nM

## CCS(=O)(=O)NC(=O)c1cc(-c2ccc(N3CCOCC3)cc2)c2c(C)nn(-c3cccc(Cl)c3)c2n1 [Compound 66, 1-(3-chlorophenyl)-N-(ethanesulfonyl)-3-methyl-4-[4-(morpholin-4-yl)phenyl]-1H-pyrazolo[3,4-b]pyridine-6-carboxamide]
[1]
  % Activation: 332.85%
  EC50: 6670 nM
[2]
  % Activation: 142.65%
  EC50: 1860 nM

## Cc1nn(-c2cccc(F)c2)c2nc(C(=O)NS(C)(=O)=O)cc(-c3ccc(N4CCOCC4)cc3)c12 [Compound 67, 1-(3-fluorophenyl)-N-(methanesulfonyl)-3-methyl-4-[4-(morpholin-4-yl)phenyl]-1H-pyrazolo[3,4-b]pyridine-6-carboxamide]
[1]
  % Activation: 371.62%
  EC50: 241 nM
[2]
  % Activation: 181.96%
  EC50: 362 nM

## CCS(=O)(=O)NC(=O)c1cc(-c2ccc(N3CCOCC3)cc2)c2c(C)nn(-c3cccc(F)c3)c2n1 [Compound 68, N-(ethanesulfonyl)-1-(3-fluorophenyl)-3-methyl-4-[4-(morpholin-4-yl)phenyl]-1H-pyrazolo[3,4-b]pyridine-6-carboxamide]
[1]
  % Activation: 456.6%
  EC50: 847 nM
[2]
  % Activation: 253.3%
  EC50: 1080 nM

## Cc1nn(-c2ccc(OC(F)(F)F)cc2)c2nc(C(=O)NS(C)(=O)=O)cc(-c3ccc(N4CCOCC4)cc3)c12 [Compound 69, N-(methanesulfonyl)-3-methyl-4-[4-(morpholin-4-yl)phenyl]-1-[4-(trifluoromethoxy)phenyl]-1H-pyrazolo[3,4-b]pyridine-6-carboxamide]
[1]
  % Activation: 362.03%
  EC50: 404 nM
[2]
  % Activation: 182.08%
  EC50: 632 nM
